Results taken from patent US20150094474A1, “AGRICULTURAL CHEMICALS” (Redx Pharma Ltd., priority 2012, published 2015).

Assays:
barley = experiment: Herbicidal bioassay, barley (% necrosis); type: in vivo
Procedure: (§1) A laboratory bioassay was conducted to screen ten compounds (Fluazifop (25); Ethyl fluazifop (62); five fluazifop analogues: 27, 28, 63, 64 and 65; mesofulfuron (6); and two mesosulfuron analogues: 8 and 61. for activity against Lolium perenne, barley, peas and Chinese cabbage. Compounds were diluted in DMSO. Controls were performed using both DMSO and water.
(§2) Plants were obtained as seeds and were grown to the 2-4 true leaf stage. Plants were grown individually in seed trays. Each plant (in an approximately 3 cm diameter plug) was then detached from the tray for spraying. Environmental conditions were closely monitored and recorded and were within the optimal range of the target species.
(§3) The compounds were screened at a range of six concentrations, eg. 0.05%, 0.01%, 0.005%, 0.001%, 0.0005% and 0.0001%. Treatments will be applied directly onto the plants, using a potter tower.
(§4) One plant of each type will be sprayed using a potter tower. The 4 different types of weeds will be placed in a 10 cm diameter area underneath the potter sprayer and sprayed simultaneously. The growth of the plants and any Phytotoxicity effects will then be assessed at specified growth intervals, according to EPPO guideline PP1/135. Five replicates will be performed for each treatment, for each species.

peas = experiment: Herbicidal bioassay, peas (% necrosis); type: in vivo
Procedure: as §1, §2, §3, §4

## CC(/C=N/O)Oc1ccc(Oc2ccc(C(F)(F)F)cn2)cc1 (stereo not drawn) [Compound 64, (1E)-2-[4-[[5-(Trifluoromethyl)-2-pyridyl]oxy]phenoxy]propanal oxime]
barley; Dose 0.000001, Day 0
  Sum of % necrosis in barley: C (less than 50% necrosis)
barley; Dose 0.000001, Day 1
  Sum of % necrosis in barley: C (less than 50% necrosis)
barley; Dose 0.000001, Day 3
  Sum of % necrosis in barley: C (less than 50% necrosis)
barley; Dose 0.000001, Day 7
  Sum of % necrosis in barley: C (less than 50% necrosis)
barley; Dose 0.000001, Day 10
  Sum of % necrosis in barley: C (less than 50% necrosis)
barley; Dose 0.000001, Day 14
  Sum of % necrosis in barley: C (less than 50% necrosis)
barley; Dose 0.000001, Day 21
  Sum of % necrosis in barley: C (less than 50% necrosis)
barley; Dose 0.000005, Day 0
  Sum of % necrosis in barley: C (less than 50% necrosis)
barley; Dose 0.000005, Day 1
  Sum of % necrosis in barley: C (less than 50% necrosis)
barley; Dose 0.000005, Day 3
  Sum of % necrosis in barley: C (less than 50% necrosis)
barley; Dose 0.000005, Day 7
  Sum of % necrosis in barley: C (less than 50% necrosis)
barley; Dose 0.000005, Day 10
  Sum of % necrosis in barley: C (less than 50% necrosis)
barley; Dose 0.000005, Day 14
  Sum of % necrosis in barley: C (less than 50% necrosis)
barley; Dose 0.000005, Day 21
  Sum of % necrosis in barley: C (less than 50% necrosis)
barley; Dose 0.00001, Day 0
  Sum of % necrosis in barley: C (less than 50% necrosis)
barley; Dose 0.00001, Day 1
  Sum of % necrosis in barley: C (less than 50% necrosis)
barley; Dose 0.00001, Day 3
  Sum of % necrosis in barley: C (less than 50% necrosis)
barley; Dose 0.00001, Day 7
  Sum of % necrosis in barley: C (less than 50% necrosis)
barley; Dose 0.00001, Day 10
  Sum of % necrosis in barley: C (less than 50% necrosis)
barley; Dose 0.00001, Day 14
  Sum of % necrosis in barley: C (less than 50% necrosis)
barley; Dose 0.00001, Day 21
  Sum of % necrosis in barley: C (less than 50% necrosis)
barley; Dose 0.00005, Day 0
  Sum of % necrosis in barley: C (less than 50% necrosis)
barley; Dose 0.00005, Day 1
  Sum of % necrosis in barley: C (less than 50% necrosis)
barley; Dose 0.00005, Day 3
  Sum of % necrosis in barley: C (less than 50% necrosis)
barley; Dose 0.00005, Day 7
  Sum of % necrosis in barley: C (less than 50% necrosis)
barley; Dose 0.00005, Day 10
  Sum of % necrosis in barley: C (less than 50% necrosis)
barley; Dose 0.00005, Day 14
  Sum of % necrosis in barley: C (less than 50% necrosis)
barley; Dose 0.00005, Day 21
  Sum of % necrosis in barley: C (less than 50% necrosis)
barley; Dose 0.0001, Day 0
  Sum of % necrosis in barley: C (less than 50% necrosis)
barley; Dose 0.0001, Day 1
  Sum of % necrosis in barley: C (less than 50% necrosis)
barley; Dose 0.0001, Day 3
  Sum of % necrosis in barley: C (less than 50% necrosis)
barley; Dose 0.0001, Day 7
  Sum of % necrosis in barley: C (less than 50% necrosis)
barley; Dose 0.0001, Day 10
  Sum of % necrosis in barley: C (less than 50% necrosis)
barley; Dose 0.0001, Day 14
  Sum of % necrosis in barley: C (less than 50% necrosis)
barley; Dose 0.0001, Day 21
  Sum of % necrosis in barley: C (less than 50% necrosis)
barley; Dose 0.0005, Day 0
  Sum of % necrosis in barley: C (less than 50% necrosis)
barley; Dose 0.0005, Day 1
  Sum of % necrosis in barley: C (less than 50% necrosis)
barley; Dose 0.0005, Day 3
  Sum of % necrosis in barley: C (less than 50% necrosis)
barley; Dose 0.0005, Day 7
  Sum of % necrosis in barley: C (less than 50% necrosis)
barley; Dose 0.0005, Day 10
  Sum of % necrosis in barley: B (50%-80% necrosis)
barley; Dose 0.0005, Day 14
  Sum of % necrosis in barley: B (50%-80% necrosis)
barley; Dose 0.0005, Day 21
  Sum of % necrosis in barley: B (50%-80% necrosis)
peas; Dose 0.000001, Day 0
  Sum of % necrosis in Peas: C (less than 50% necrosis)
peas; Dose 0.000001, Day 1
  Sum of % necrosis in Peas: C (less than 50% necrosis)
peas; Dose 0.000001, Day 3
  Sum of % necrosis in Peas: C (less than 50% necrosis)
peas; Dose 0.000001, Day 7
  Sum of % necrosis in Peas: C (less than 50% necrosis)
peas; Dose 0.000001, Day 10
  Sum of % necrosis in Peas: C (less than 50% necrosis)
peas; Dose 0.000001, Day 14
  Sum of % necrosis in Peas: C (less than 50% necrosis)
peas; Dose 0.000001, Day 21
  Sum of % necrosis in Peas: B (50%-80% necrosis)
peas; Dose 0.000005, Day 0
  Sum of % necrosis in Peas: C (less than 50% necrosis)
peas; Dose 0.000005, Day 1
  Sum of % necrosis in Peas: C (less than 50% necrosis)
peas; Dose 0.000005, Day 3
  Sum of % necrosis in Peas: C (less than 50% necrosis)
peas; Dose 0.000005, Day 7
  Sum of % necrosis in Peas: C (less than 50% necrosis)
peas; Dose 0.000005, Day 10
  Sum of % necrosis in Peas: C (less than 50% necrosis)
peas; Dose 0.000005, Day 14
  Sum of % necrosis in Peas: C (less than 50% necrosis)
peas; Dose 0.000005, Day 21
  Sum of % necrosis in Peas: C (less than 50% necrosis)
peas; Dose 0.00001, Day 0
  Sum of % necrosis in Peas: C (less than 50% necrosis)
peas; Dose 0.00001, Day 1
  Sum of % necrosis in Peas: C (less than 50% necrosis)
peas; Dose 0.00001, Day 3
  Sum of % necrosis in Peas: C (less than 50% necrosis)
peas; Dose 0.00001, Day 7
  Sum of % necrosis in Peas: C (less than 50% necrosis)
peas; Dose 0.00001, Day 10
  Sum of % necrosis in Peas: C (less than 50% necrosis)
peas; Dose 0.00001, Day 14
  Sum of % necrosis in Peas: B (50%-80% necrosis)
peas; Dose 0.00001, Day 21
  Sum of % necrosis in Peas: A (over 80% necrosis)
peas; Dose 0.00005, Day 0
  Sum of % necrosis in Peas: C (less than 50% necrosis)
peas; Dose 0.00005, Day 1
  Sum of % necrosis in Peas: C (less than 50% necrosis)
peas; Dose 0.00005, Day 3
  Sum of % necrosis in Peas: C (less than 50% necrosis)
peas; Dose 0.00005, Day 7
  Sum of % necrosis in Peas: C (less than 50% necrosis)
peas; Dose 0.00005, Day 10
  Sum of % necrosis in Peas: C (less than 50% necrosis)
peas; Dose 0.00005, Day 14
  Sum of % necrosis in Peas: C (less than 50% necrosis)
peas; Dose 0.00005, Day 21
  Sum of % necrosis in Peas: C (less than 50% necrosis)
peas; Dose 0.0001, Day 0
  Sum of % necrosis in Peas: C (less than 50% necrosis)
peas; Dose 0.0001, Day 1
  Sum of % necrosis in Peas: C (less than 50% necrosis)
peas; Dose 0.0001, Day 3
  Sum of % necrosis in Peas: C (less than 50% necrosis)
peas; Dose 0.0001, Day 7
  Sum of % necrosis in Peas: C (less than 50% necrosis)
peas; Dose 0.0001, Day 10
  Sum of % necrosis in Peas: C (less than 50% necrosis)
peas; Dose 0.0001, Day 14
  Sum of % necrosis in Peas: B (50%-80% necrosis)
peas; Dose 0.0001, Day 21
  Sum of % necrosis in Peas: A (over 80% necrosis)
peas; Dose 0.0005, Day 0
  Sum of % necrosis in Peas: C (less than 50% necrosis)
peas; Dose 0.0005, Day 1
  Sum of % necrosis in Peas: C (less than 50% necrosis)
peas; Dose 0.0005, Day 3
  Sum of % necrosis in Peas: C (less than 50% necrosis)
peas; Dose 0.0005, Day 7
  Sum of % necrosis in Peas: C (less than 50% necrosis)
peas; Dose 0.0005, Day 10
  Sum of % necrosis in Peas: C (less than 50% necrosis)
peas; Dose 0.0005, Day 14
  Sum of % necrosis in Peas: C (less than 50% necrosis)
peas; Dose 0.0005, Day 21
  Sum of % necrosis in Peas: A (over 80% necrosis)
